Values quoted from earlier work, collected in patent US20050013753A1, “Heat-transfer systems” (priority 2003, published 2005).
Where two headings read alike, the source gives them in different places.

How the values were obtained:
[1] = test system: mammalian cells
[2] = in water; DuPont MSDS
[3] = test system: rabbits; conditions: in rabbits; DuPont MSDS
[4] = test system: bacterial cells; conditions: in vitro
[5] = test system: mammalian cells; conditions: in vitro
[6] = animal data; DuPont MSDS
[7] = test system: rats; conditions: in rats; DuPont MSDS
[8] = test system: rats
[9] = test system: rats; conditions: repeated inhalation exposure
[10] = animal data; DuPont MSDS; remark: listed apart in the source
[11] = test system: rats; conditions: in rats, DuPont MSDS
[12] = DuPont MSDS
[13] = animal data
[14] = animal data; DuPont MSDS; remark: listed apart in the source
[15] = test system: mouse; conditions: in vivo mouse

OCCCO [1,3-Propanediol, 1,3-propanediol]
Chromosome aberrations, repeat study ([1]; 1,3-propanediol manufactured by DuPont): negative for all test conditions | Chromosome aberrations ([1]; under certain conditions): An increase in chromosome aberrations was observed | pH [2]: pH: 4.5-7 in water. Color: Colorless. | Dermal LD50 [3]: > 20,000 mg/kg | Mutagenicity [4]: not mutagenic | Mutagenicity [5]: not mutagenic | Eye irritation [6]: not an eye irritant | Oral LD50 [7]: 15,000 mg/kg | Adverse effects to sperm and reproductive organs ([8]; oral repeated dose study in rats): no adverse effects to sperm and reproductive organs were observed | Changes in clinical pathology, pathology (including sperm analyses), or in-life measurements ([8]; rats, repeated oral gavage): no toxicologically important changes | NOEL ([8]; rats, repeated oral gavage, highest dose tested): 1000 mg/kg/day | Changes in clinical pathology, pathology, or in-life measurements [9]: no toxicologically important changes | NOEL [9]: 1800 mg/m3 | Skin irritation [10]: slight skin irritant | Inhalation 4 hour ALC [11]: Inhalation 4 hour ALC: >5.0 mg/L in rats | Chemical Stability [12]: Chemical Stability: Stable at normal temperatures and storage conditions. | Toxicity to the fetus [13]: not uniquely toxic to the fetus | Skin sensitization [14]: not a skin sensitizer. | Micronucleus assay result [15]: negative
